Results taken from ChEMBL document CHEMBL4725297, “The discovery and evaluation of 3-amino-2(1H)-pyrazinones as a novel series of selective p38α MAP kinase inhibitors” (Bioorg Med Chem Lett, 2020).
Converted amounts (≈) assume the structure as drawn.

Columns and labels:
[1] = Aqueous solubility of the compound at pH 7.4; type: physicochemical; conditions: buffer
[2] = Distribution coefficient, logD of the compound at pH 7.4; type: physicochemical; conditions: octanol/water
[3] = Intrinsic clearance in rat hepatocytes assessed per 10^6 cells; type: ADME, cell-based, Hepatocyte; conditions: read-out: CLH
[4] = Clearance in iv dosed rat relative to hepatic blood flow; type: ADME, organism-based; conditions: in vivo
[5] = Oral bioavailability in rat; type: ADME, organism-based; conditions: in vivo
[6] = Acid dissociation constant, pKa of the compound; type: physicochemical
[7] = Clearance in iv dosed dog; type: ADME, organism-based, Canis lupus familiaris; conditions: in vivo
[8] = Half life in iv dosed rat; type: ADME, organism-based; conditions: in vivo
[9] = Clearance in iv dosed rat; type: ADME, organism-based; conditions: in vivo
[10] = Half life in iv dosed dog; type: ADME, organism-based, Canis lupus familiaris; conditions: in vivo
[11] = Volume of distribution at steady state in iv dosed dog; type: ADME, organism-based, Canis lupus familiaris; conditions: in vivo, read-out: Vdss
[12] = Clearance in iv dosed dog relative to hepatic blood flow; type: ADME, organism-based, Canis lupus familiaris; conditions: in vivo
[13] = Apparent permeability of the compound by PAMPA; type: ADME
[14] = Volume of distribution at steady state in iv dosed rat; type: ADME, organism-based; conditions: in vivo, read-out: Vdss

| solubility ([1]; read-out: solubility) | logD [2] | hepatocyte CLint [3] | SMILES | further results |
| --- | --- | --- | --- | --- |
| < 19 µM | 2.9 | 3.4 µL/min/1e6 cells | COc1ccc(CNc2nccn(-c3cc(C(=O)NC4CC4)ccc3C)c2=O)cc1 | – |
| 270 µM (≈ 109 µg/mL) | 3.3 | 26 µL/min/1e6 cells | CC[C@@H](Nc1nccn(-c2cc(C(=O)NC3CC3)ccc2C)c1=O)c1ccccc1 | – |
| 843 µM (≈ 387 µg/mL) | 2 | 18 µL/min/1e6 cells | Cc1ccc(C(=O)NC2CC2)cc1-n1ccnc(N[C@@H](c2ccccc2)[C@@H](C)CN(C)C)c1=O | – |
| > 1000 µM | 1.1 | 1.1 µL/min/1e6 cells | CNc1nccn(-c2cc(C(=O)NC3CC3)ccc2C)c1=O | – |
| 351 µM (≈ 142 µg/mL) | 2.7 | 7.4 µL/min/1e6 cells | COc1cccc(CNc2nccn(-c3cc(C(=O)NC4CC4)ccc3C)c2=O)c1 | – |
| 870 µM (≈ 376 µg/mL) | 2.6 | 19 µL/min/1e6 cells | Cc1ccc(C(=O)NC2CC2)cc1-n1ccnc(N[C@@H](c2ccccc2)[C@@H](C)CO)c1=O | – |
| 23 µM (≈ 8.61 µg/mL) | 2.6 | 4.5 µL/min/1e6 cells | Cc1ccc(C(=O)NC2CC2)cc1-n1ccnc(NCc2ccccc2)c1=O | – |
| 405 µM (≈ 146 µg/mL) | 3 | 3.3 µL/min/1e6 cells | Cc1ccc(C(=O)NC2CC2)cc1-n1ccnc(Nc2ccccc2)c1=O | – |
| 50 µM (≈ 19.4 µg/mL) | 3.1 | < 3 µL/min/1e6 cells | Cc1ccc(C(=O)NC2CC2)cc1-n1ccnc(N[C@@H](C)c2ccccc2)c1=O | – |
| 734 µM (≈ 285 µg/mL) | 2.9 | 17 µL/min/1e6 cells | Cc1ccc(C(=O)NC2CC2)cc1-n1ccnc(N[C@H](C)c2ccccc2)c1=O | – |
| 392 µM (≈ 152 µg/mL) | 3 | 130 µL/min/1e6 cells | Cc1ccc(C(=O)NC2CC2)cc1-n1ccnc(NCCc2ccccc2)c1=O | – |
| 54 µM (≈ 21 µg/mL) | 3.2 | 59 µL/min/1e6 cells | Cc1ccc(C(=O)NC2CC2)cc1-n1ccnc(N(C)Cc2ccccc2)c1=O | – |
| – | 3.1 | 19 µL/min/1e6 cells | Cc1ccc(C(=O)NC2CC2)cc1-n1ccnc(NC(C)(C)c2ccccc2)c1=O | – |
| 258 µM (≈ 104 µg/mL) | – | 22 µL/min/1e6 cells | COc1ccccc1CNc1nccn(-c2cc(C(=O)NC3CC3)ccc2C)c1=O | – |

More lines, now with the values behind:

| SMILES | solubility ([1]; read-out: solubility) | logD [2] | hepatocyte CLint [3] | further results |
| --- | --- | --- | --- | --- |
| Cc1ccc(C(=O)NC2CC2)cc1-n1ccnc(N[C@@H](c2ccccc2)[C@@H](C)CN2CCN[C@@H](C)C2)c1=O | 783 µM (≈ 403 µg/mL) | 1.5 | 14 µL/min/1e6 cells | – |
| CNCCOc1ccccc1C(C)(C)Nc1nccn(-c2cc(C(=O)NC3CC3)ccc2C)c1=O | 650 µM (≈ 309 µg/mL) | 1.6 | 20 µL/min/1e6 cells | CL [4]: 69%; bioavailability [5]: 6%; pKa [6]: 9.1; clearance [7]: 16.5 mL/min/kg; half-life [8]: 780 min; clearance [9]: 59 mL/min/kg; half-life [10]: 396 min; Vd [11]: 6.4 L/kg; CL [12]: 54%; Papp [13]: 4.2 ×10⁻⁶ cm/s; Vd [14]: 31.6 L/kg |
| CC[C@@H](Nc1nccn(-c2cc(C(=O)NC3CC3)ccc2C)c1=O)c1ccccc1OCCN1CCCC1 | 800 µM (≈ 413 µg/mL) | 2.3 | 35 µL/min/1e6 cells | – |
| Cc1ccc(C(=O)NC2CC2)cc1-n1ccnc(N2CCCC2c2ccccc2)c1=O (racemic) | 344 µM (≈ 143 µg/mL) | 3.3 | 120 µL/min/1e6 cells | – |
| Cc1ccc(C(=O)NC2CC2)cc1-n1ccnc(NC2CC2)c1=O | > 1000 µM | 1.5 | < 1 µL/min/1e6 cells | – |
| Cc1ccc(C(=O)NC2CC2)cc1-n1ccnc(N[C@@H](c2ccccc2)[C@@H](C)CN2CCN(C)CC2)c1=O | 854 µM (≈ 440 µg/mL) | 2.3 | 30 µL/min/1e6 cells | – |
| Cc1ccc(C(=O)NC2CC2)cc1-n1ccnc(NCc2ccccc2OCCN2CCCC2)c1=O | 670 µM (≈ 327 µg/mL) | 1.6 | 55 µL/min/1e6 cells | – |
| Cc1ccc(C(=O)NC2CC2)cc1-n1ccnc(N[C@@H](c2ccccc2)[C@@H](C)CN2CCN[C@H](C)C2)c1=O | 847 µM (≈ 436 µg/mL) | 1.6 | 8.5 µL/min/1e6 cells | – |
| Cc1ccc(C(=O)NC2CC2)cc1-n1ccnc(NCC2CCCCC2)c1=O | 340 µM (≈ 129 µg/mL) | 3.7 | 7.6 µL/min/1e6 cells | – |
| Cc1ccc(C(=O)NC2CC2)cc1-n1ccnc(N[C@@H](c2ccccc2)[C@@H](C)CN2CCNCC2)c1=O | 636 µM (≈ 318 µg/mL) | 1.3 | 15 µL/min/1e6 cells | – |
| Cc1ccc(C(=O)NC2CC2)cc1-n1cnc2ccc(N3CCN(C)CC3)cc2c1=O [AZD-6703] | – | – | < 3 µL/min/1e6 cells | solubility [1]: 730 µM (≈ 305 µg/mL); half-life [8]: 42 min |
| Cc1ccc(C(=O)NC2CC2)cc1-n1ccnc(N[C@@H](c2ccccc2)[C@@H](C)CN2CCOCC2)c1=O | 216 µM (≈ 108 µg/mL) | 3.5 | > 300 µL/min/1e6 cells | – |
| Cc1ccc(C(=O)NC2CC2)cc1-n1ccnc(N)c1=O | – | 0.4 | – | – |
| Cc1ccc(C(=O)NC2CC2)cc1-n1ccnc(N[C@@H]2CCCc3ccccc32)c1=O | 168 µM (≈ 69.6 µg/mL) | 3.7 | 140 µL/min/1e6 cells | – |
| Cc1ccc(C(=O)NC2CC2)cc1-n1ccnc(NC(C)(C)c2ccccc2OCCN2CCCC2)c1=O | > 1000 µM | 2.3 | 157 µL/min/1e6 cells | half-life [8]: 480 min; clearance [9]: 99 mL/min/kg; Vd [14]: 16.6 L/kg |
| Cc1ccc(C(=O)NC2CC2)cc1-n1ccnc(N[C@@H](c2ccccc2)[C@@H](C)CN2CCCCC2)c1=O | 908 µM (≈ 454 µg/mL) | 3 | 61 µL/min/1e6 cells | pKa [6]: 8.4; half-life [8]: 468 min; clearance [9]: 50 mL/min/kg; Vd [14]: 5.5 L/kg |
